Test [1] can be described thus: Inhibition of porcine brain CK1delta using RRKHAAIGpSAYSITA as substrate incubated for 30 mins in presence of [gamma-33P]ATP by scintillation counting method. In kind it is tissue-based, Sus scrofa domesticus.
Test [2] has as its target Casein kinase I isoform delta (Homo sapiens, UniProt P48730). Description: Inhibition of wild-type human CK1delta using PLSRTLpSVASLPGL as substrate incubated for 40 mins in presence of ATP by Kinase-Glo luminescence assay.
Test [3] deals with Casein kinase I isoform epsilon (Homo sapiens, UniProt P49674). In words: Inhibition of wild-type human CK1epsilon using PLSRTLpSVASLPGL as substrate incubated for 70 mins in presence of ATP by Kinase-Glo luminescence assay. (Kinase-Glo measures the ATP left after a reaction by luminescence.)

For two compounds, IC50 results are on record in ChEMBL document CHEMBL4732260, “Developing novel classes of protein kinase CK1δ inhibitors by fusing [1,2,4]triazole with different bicyclic heteroaromatic systems” (Eur J Med Chem, 2021).

Molecules are shown by their SMILES.

Sequence of Casein kinase I isoform epsilon (P49674 whole entry, canonical isoform): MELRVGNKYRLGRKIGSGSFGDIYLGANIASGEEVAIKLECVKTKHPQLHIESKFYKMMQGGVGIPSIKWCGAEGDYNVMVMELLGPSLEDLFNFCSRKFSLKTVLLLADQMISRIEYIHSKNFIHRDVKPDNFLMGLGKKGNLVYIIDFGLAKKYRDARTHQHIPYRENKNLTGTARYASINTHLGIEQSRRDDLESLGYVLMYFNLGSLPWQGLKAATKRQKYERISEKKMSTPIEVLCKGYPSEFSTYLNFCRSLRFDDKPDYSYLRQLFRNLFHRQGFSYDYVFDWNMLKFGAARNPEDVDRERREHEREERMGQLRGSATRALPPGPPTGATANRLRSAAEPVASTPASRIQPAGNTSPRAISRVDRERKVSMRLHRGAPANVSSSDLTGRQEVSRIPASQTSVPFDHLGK
Sequence of Casein kinase I isoform delta (P48730 whole entry, canonical isoform): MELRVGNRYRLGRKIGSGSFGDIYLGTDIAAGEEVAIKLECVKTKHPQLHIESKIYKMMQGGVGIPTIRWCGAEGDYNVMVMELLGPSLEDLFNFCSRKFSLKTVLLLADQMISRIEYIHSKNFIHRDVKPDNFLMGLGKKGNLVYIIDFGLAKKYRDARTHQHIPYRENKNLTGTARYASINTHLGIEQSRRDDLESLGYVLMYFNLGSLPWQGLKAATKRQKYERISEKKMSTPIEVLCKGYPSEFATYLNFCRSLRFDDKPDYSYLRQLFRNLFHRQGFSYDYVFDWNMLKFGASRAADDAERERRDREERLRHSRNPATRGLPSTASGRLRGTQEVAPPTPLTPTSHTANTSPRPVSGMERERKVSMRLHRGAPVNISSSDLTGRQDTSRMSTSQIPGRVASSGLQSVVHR

One may read the IC50 as the concentration that inhibits the measured activity by half. Take `CCC(CO)Nc1nc(NCc2ccc(-c3ccccn3)cc2)c2ncn(C(C)C)c2n1` (stereo not drawn): the IC50 in test [1] is 400 nM.

With `Nc1nccc(-c2c(-c3ccc(F)cc3)ncn2C2CCN(Cc3ccon3)CC2)n1`, the IC50 in test [2] was 3.9 nM; in test [3], 17 nM.
